Results on eight compounds are retold here after patent US8193189B2, “Quinoxaline derivatives as tyrosine kinase activity inhibitors” (Novartis AG, priority 2007, dated 2012).

Molecules are shown by their SMILES. Some results are limits rather than exact numbers.

Test [1] concerns the target T1, GST-JAK1(866-1154) (Homo sapiens, UniProt P23458).
T1 construct: GST-JAK1(866-1154); made in house
The test is described as follows: EPK JAK-family kinases profiling assay (Caliper mobility shift), JAK1. In kind it is biochemical. The conditions noted are these: ATP 40 μM, 50 nM kinase. An outline of the steps: (§1)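 Turnover was read as substrate/product ratio after mobility-shift capillary-like separation of each reaction, run for 60 min at 30 °C with GST-tagged kinase domain, labelled peptide and ATP, and terminated with EDTA stop buffer.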

Test [2] concerns the target T2, GST-JAK2(808-1132) (Homo sapiens, UniProt O60674).
T2 construct: GST-JAK2(808-1132); purchased Invitrogen (Carlsbad, USA) #4288
The test is described as follows: EPK JAK-family kinases profiling assay (Caliper mobility shift), JAK2. Type of test: biochemical. As to conditions: ATP 20 μM, 1.8 nM kinase. The essentials: as §1

For test [3], the target named is T3, GST-JAK3(811-1124) (Homo sapiens, UniProt P52333).
T3 construct: GST-JAK3(811-1124); made in house
Description: EPK JAK-family kinases profiling assay (Caliper mobility shift), JAK3. Type of test: biochemical. The conditions noted are these: ATP 80 μM, 6 nM kinase. An outline of the steps:
as §1

Test [4] concerns the target T4, GST-TYK2(888-1187) (Homo sapiens, UniProt P29597).
T4 construct: GST-TYK2(888-1187); made in house
T4 sequence (P29597 888-1187): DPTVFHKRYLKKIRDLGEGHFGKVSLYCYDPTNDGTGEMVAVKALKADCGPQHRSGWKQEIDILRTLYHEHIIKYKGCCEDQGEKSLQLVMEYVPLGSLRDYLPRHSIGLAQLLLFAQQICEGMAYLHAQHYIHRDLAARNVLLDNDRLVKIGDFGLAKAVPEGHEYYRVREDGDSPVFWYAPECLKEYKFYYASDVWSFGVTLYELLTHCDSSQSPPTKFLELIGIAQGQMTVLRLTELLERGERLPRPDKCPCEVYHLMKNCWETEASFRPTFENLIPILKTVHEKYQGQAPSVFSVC
The test is described as follows: EPK JAK-family kinases profiling assay (Caliper mobility shift), TYK2. Type of test: biochemical. As to conditions: ATP 30 μM, 40 nM kinase. An outline of the steps: as §1

In test [5] the test system is JAK/STAT pathway (JAK1/JAK2-dependent nuclear translocation of STAT1-GFP). Description: Inhibition of the JAK/STAT pathway: IFN-γ stimulated nuclear translocation of STAT1-GFP in HT1080 fibrosarcoma cells. Type of test: cell-based. The conditions noted are these: Homo sapiens, HT-1080; HT1080 STAT1-GFP cells, 100 ng/ml IFN-γ 2 hours, compound added 30 min before; read-out: STAT1translo IC50. An outline of the steps: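 HT1080 cells stably expressing STAT1-GFP, compounds added 30 min before IFN-γ stimulation at final 10 μM down to 0.003 μM (0.1% DMSO). Nuclear-cytoplasmic GFP intensity differential quantified by automated imaging with Hoechst nuclear mask, ≥1000 cells per well, averaged per well.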

By IC50 is commonly meant the point on the concentration scale where inhibition reaches its midpoint.

T1 sequence (P23458 866-1154): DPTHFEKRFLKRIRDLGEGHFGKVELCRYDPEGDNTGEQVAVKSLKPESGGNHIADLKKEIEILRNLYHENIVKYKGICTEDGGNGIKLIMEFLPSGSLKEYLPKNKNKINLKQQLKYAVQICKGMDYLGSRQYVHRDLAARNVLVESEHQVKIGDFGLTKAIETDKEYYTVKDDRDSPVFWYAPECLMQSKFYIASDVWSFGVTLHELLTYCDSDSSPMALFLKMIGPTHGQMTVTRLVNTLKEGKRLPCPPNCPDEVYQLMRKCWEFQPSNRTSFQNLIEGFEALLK
T2 sequence (O60674 808-1132): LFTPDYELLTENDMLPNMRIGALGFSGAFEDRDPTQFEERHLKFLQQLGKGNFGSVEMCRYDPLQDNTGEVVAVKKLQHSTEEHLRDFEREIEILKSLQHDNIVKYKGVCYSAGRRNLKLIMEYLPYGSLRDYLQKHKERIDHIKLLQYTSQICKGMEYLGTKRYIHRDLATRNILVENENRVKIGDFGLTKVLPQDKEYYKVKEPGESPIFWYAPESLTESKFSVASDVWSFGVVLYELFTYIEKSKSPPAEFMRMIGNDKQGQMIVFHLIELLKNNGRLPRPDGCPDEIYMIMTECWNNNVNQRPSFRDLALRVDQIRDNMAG
T3 sequence (P52333 811-1124): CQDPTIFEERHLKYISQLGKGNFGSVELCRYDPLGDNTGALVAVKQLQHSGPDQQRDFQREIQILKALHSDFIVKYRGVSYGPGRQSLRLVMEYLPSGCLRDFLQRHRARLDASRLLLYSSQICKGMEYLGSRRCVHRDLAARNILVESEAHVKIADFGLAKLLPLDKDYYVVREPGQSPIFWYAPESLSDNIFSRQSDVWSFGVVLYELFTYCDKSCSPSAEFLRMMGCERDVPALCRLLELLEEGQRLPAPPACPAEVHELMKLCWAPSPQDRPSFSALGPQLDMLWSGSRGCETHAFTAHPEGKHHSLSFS

As for `Cc1cc(-c2cnc3cccc(-c4cc(F)c(CN5CCOCC5)c(F)c4)c3n2)ccc1C(=O)N(C)CCN(C)C` [Example 94, 4-[8-(3,5-Difluoro-4-morpholin-4-ylmethyl-phenyl)-quinoxalin-2-yl]-N-(2-dimethylamino-ethyl)-2,N-dimethyl-benzamide], the IC50 in test [1] is 455 nM; in test [2] it was 27 nM; in test [3] it was 2150 nM; in test [4], 985 nM; in test [5], 1530 nM.

`Cc1cc(-c2cnc3cccc(-c4cc(F)c(CN5CCS(=O)(=O)CC5)c(F)c4)c3n2)ccc1C(=O)N(C)CCN(C)C` [Example 95, N-(2-Dimethylamino-ethyl)-4-{8-[4-(1,1-dioxido-thiomorpholin-4-ylmethyl)-3,5-difluoro-phenyl]-quinoxalin-2-yl}-2,N-dimethyl-benzamide]: the IC50 in test [1] is 18 nM; in test [2] it was below 3 nM; in test [3], 73.5 nM; in test [4], 40 nM; in test [5], 105 nM.

For the compound `O=S1(=O)CCN(Cc2c(F)cc(-c3cccc4ncc(-c5cnn(C6CCNCC6)c5)nc34)cc2F)CC1` [Example 96, 8-[4-(1,1-Dioxido-thiomorpholin-4-ylmethyl)-3,5-difluoro-phenyl]-2-(1-piperidin-4-yl-1H-pyrazol-4-yl)-quinoxaline], the half-inhibitory concentration (IC50) in test [1] is 53 nM; in test [2] it was below 3 nM; in test [3] it was 260 nM; in test [4], 50.5 nM; in test [5], 35.5 nM.

For `O=C(c1c(F)cc(-c2cccc3ncc(-c4cnn(C5CCNCC5)c4)nc23)cc1F)N1CCOCC1` [Example 97, {2,6-Difluoro-4-[3-(1-piperidin-4-yl-1H-pyrazol-4-yl)-quinoxalin-5-yl]-phenyl}-morpholin-4-yl-methanone], the IC50 in test [1] was 720 nM; in test [2] it was 19.5 nM; in test [3], 9150 nM; in test [4], 510 nM; in test [5], 495 nM.

On to `CS(=O)(=O)c1ccc(-c2cccc3ncc(-c4cnn(C5CCNCC5)c4)nc23)cc1F` [Example 99, 8-(3-Fluoro-4-methanesulfonyl-phenyl)-2-(1-piperidin-4-yl-1H-pyrazol-4-yl)-quinoxaline], for which the IC50 in test [1] worked out at 870 nM; in test [2], 22 nM; in test [3] it was 4850 nM; in test [4], 805 nM; in test [5], 1360 nM.

As for `Cc1cc(-c2cnc3cccc(-c4cc(F)c(CN5CCS(=O)(=O)CC5)c(F)c4)c3n2)ccc1C(=O)N1CCC(N(C)C)CC1` [Example 102, (4-Dimethylamino-piperidin-1-yl)-(4-{8-[4-(1,1-dioxido-thiomorpholin-4-ylmethyl)-3,5-difluoro-phenyl]-quinoxalin-2-yl}-2-methyl-phenyl)-methanone], the IC50 was found to be 1220 nM in test [1]; 74 nM in test [2]; 5330 nM in test [3]; 2730 nM in test [4]; 31.5 nM in test [5].

As to `CCN1CCN(c2ccc(-c3cnc4cccc(-c5cc(F)c(CN6CCOCC6)c(F)c5)c4n3)cc2C)CC1` [Example 103, 8-(3,5-Difluoro-4-morpholin-4-ylmethyl-phenyl)-2-[4-(4-ethyl-piperazin-1-yl)-3-methyl-phenyl]-quinoxaline], the IC50 amounted to 1150 nM in test [1]; 30.5 nM in test [2]; 3600 nM in test [3]; 1200 nM in test [4]; 824 nM in test [5].

Take `COc1cc(-c2cnc3cccc(-c4cc(F)c(CN5CCOCC5)c(F)c4)c3n2)ccc1N1CCN(C)CC1` [Example 104, 8-(3,5-Difluoro-4-morpholin-4-ylmethyl-phenyl)-2-[3-methoxy-4-(4-methyl-piperazin-1-yl)-phenyl]-quinoxaline]: the concentration for half-maximal inhibition (IC50) in test [1] was 52 nM; in test [2] it was below 3 nM; in test [3] it was 390 nM; in test [4], 130 nM; in test [5], 420 nM.
